Assay results as given in article PMC6136360, “Novel group of tyrosyl-DNA-phosphodiesterase 1 inhibitors based on disaccharide nucleosides as drug prototypes for anti-cancer therapy” (Journal of Enzyme Inhibition and Medicinal Chemistry, 2018).

Columns and labels:
[1] = target: T1, TDP1 (Homo sapiens, UniProt Q9NUW8); assay: Real-time fluorescence detection of TDP1 activity, single-stranded FAM/BHQ biosensor; assay type: biochemical; settings: for Inhibitory effect on TDP1 activity (in words): single-stranded fluorescent biosensor, primary screening; for IC50: single-stranded fluorescent biosensor 50 nM, TDP1 1.5 nM, 26 °C, read-out: IC50 (half-maximal inhibitory concentration) of TDP1 activity
T1 construct: made in house; host or cells: E. coli
Experimental: (§1) Conditions and details for our real-time detection of TDP1 activity using the single-stranded and hairpin fluorescent biosensors were reported in our previous work[47]. Briefly, the approach consists in fluorescence intensity measurement of the reaction of quencher removal from the fluorophore-quencher coupled DNA-oligonucleotide catalysed by TDP1 in the presence of inhibitor and in the absence of it (the control samples contained 1% DMSO). Reaction mixtures (200 µl) contained TDP1 buffer (50 mM Tris-HCl, pH 8.0, 50 mM NaCl, 7 mM β-mercaptoethanol), oligonucleotide (50 nM substrate of TDP1), testable inhibitor and purified TDP1 (1.5 nM). The reactions were incubated at a constant temperature of 26 °C in a POLARstar OPTIMA fluorimeter, BMG LABTECH, GmbH, to measure fluorescence every 55 s (Ex485/Em520 nm) during the linear phase (here data from 0 to 8 min). The average values of half maximal inhibitory concentration (IC50) were determined using an eleven-point concentration response curve in three independent experiments and calculated using MARS Data Analysis 2.0 (BMG LABTECH).
To discover inhibitors of TDP1 we recently developed original single-stranded and hairpin fluorophore–quencher coupled DNA-biosensors for real-time measurement of TDP1 cleavage activity. The single-stranded substrate is a 16-mer oligonucleotide containing both 5′-FAM fluorophore donor and a quenching 3′-BHQ moiety (Figure 1(A)). When the quencher is removed by TDP1, the fluorescence intensity increases and can be measured by fluorimeter (TDP1 catalysed reaction on biosensor is shown in Figure 3(A). Fluorescence intensity declines in the presence of inhibitor, the resulting curves of the dependence of TDP1 residual activity as a function of the concentration of inhibitors were obtained using 4-parameter logistic regression fit, which was used to calculate IC50 values[47]^,[58].
For primary screening, the effect of a large group of disaccharide nucleosides and their hydrophobic derivatives on human recombinant TDP1 activity has been evaluated by fluorescent method on a single-stranded substrate described above.

[2] = Water solubility (qualitative); assay type: physicochemical
[3] = target: T1, TDP1; assay: Steady-state kinetic analysis of TDP1 reaction, single-stranded substrate; assay type: biochemical; settings: for Ki: Cornish-Bowden method, read-out: Inhibition constant, KI
Experimental: (§2) To determine the kinetic parameters: apparent maximum rate of enzymatic reaction (Vmax), Michaelis constant (KM), constant of inhibition (KI), and possible inhibition mechanism, steady-state kinetic experiments were carried out at five fixed concentrations of substrate with variation of inhibitor concentrations. The standard reaction mixtures (200 μl) contained 50 nM, 100 nM, 200 nM, 500 nM or 1000 nM substrate, testable inhibitor, 1.5 nM recombinant human TDP1 and reaction buffer components (50 mM Tris-HCl, pH 8.0, 50 mM NaCl, 7 mM β-mercaptoethanol). After addition of the enzyme, the reaction mixtures were incubated at a constant temperature of 26 °C and measured in a POLARstar OPTIMA fluorimeter, BMG LABTECH, GmbH, to measure fluorescence every 55 s (Ex485/Em520 nm) during the linear phase (data from 0 to 8 min). The initial data (kinetic curves) were obtained in three independent experiments and statistically processed in software OriginPro 8.6.0.
Vmax and KM decrease proportionally (Figure 6(A,B)), which corresponds to the uncompetitive type of inhibition, according to the general equation of the rate of product formation in the Michaelis–Menten kinetics.
(§3) Values of the inhibition constant (KI) were determined using Cornish–Bowden method. Similar experiments were performed for all seven tested inhibitors on two types of DNA substrates, and the results are shown in Table 4.

[4] = target: T1, TDP1; assay: Fluorescence anisotropy assay of TDP1-DNA substrate complex; assay type: binding; settings: 3 nM single-strand oligonucleotide without quencher, 50 nM TDP1
Experimental: Fluorescence anisotropy was measured by using a fluorescent single-strand DNA-oligonucleotide (3 nM) without quencher at the 3′-end in the presence of the inhibitor in different concentrations (Fluorescein control, CFlu = 10^−9 M). Reaction mixtures (200 µl) contained TDP1 buffer (50 mM Tris-HCl, pH 8.0, 50 mM NaCl, 7 mM β-mercaptoethanol), a single-strand DNA-oligonucleotide without quencher (3 nM substrate of TDP1), a testable inhibitor and the purified TDP1 (50 nM). The reactions were incubated at a constant temperature of 26 °C in a POLARstar OPTIMA fluorimeter, BMG LABTECH, GmbH, to measure fluorescence anisotropy every 55 s (Ex482/Em530 nm) during the linear phase (from 0 to 8 min) in two independent experiments.
Fluorescence anisotropy (r) was calculated by using the Equation (1): (1) r = (III–I⊥)/(III+ 2I⊥)
The dependence of the anisotropy on the concentration of the inhibitor was determined using a six-point response curve in two independent experiments and calculated using MARS Data Analysis 2.0 (BMG LABTECH).
To obtain some information about interaction of disaccharide nucleosides with TDP1, anisotropy of the fluorescent DNA substrate was measured. We used single-stranded oligonucleotide without a quencher at the 3′-end in the presence of testable inhibitors at different concentrations.

[5] = target: T1, TDP1; assay: Steady-state kinetic analysis of TDP1 reaction, double-stranded (hairpin) substrate; assay type: biochemical; settings: for Ki: Cornish-Bowden method, read-out: Inhibition constant, KI
Experimental: as §2, §3

[6] = target: T2, SCAN1 (mutant form of TDP1 with H493R substitution) (Homo sapiens, UniProt Q9NUW8, H493R); assay: Fluorescence real-time assay on mutant TDP1 (SCAN1), single-stranded oligonucleotide; assay type: biochemical
T2 construct: made in house; host or cells: E. coli
Text: The recombinant tyrosyl-DNA phosphodiesterase 1 and the mutant form of TDP1 with substitution (H493R) were expressed in the E. coli system (plasmids pET16B-TDP1 and pET16B-SCAN1 were provided by Dr. K.W. Caldecott, University of Sussex, United Kingdom and by Dr. S. El-Khamisy, University of Sheffield, United Kingdom) and purified according to the previously described technique.
as §1
The IC50 values obtained by the fluorescence real-time assay on a single-stranded oligonucleotide (section 3.1) were higher than 100 μM.

[7] = tested on: A-549 cell line (adenocarcinomic human alveolar basal epithelial cells); assay: MTT test, cytotoxicity and combination with topotecan, A-549; assay type: cell-based; settings: A-549 cells; for Synergistic coefficient (SC) with topotecan: MTT, inhibitor in combination with topotecan, SC < 1 indicates synergy; for Effect on cytotoxic effect of topotecan (in words): non-toxic inhibitor concentrations
Experimental: (§4) Tumour cell line A549 (adenocarcinomic human alveolar basal epithelial cells) and noncancerous cell line WI-38 (fibroblasts derived from lung tissue of a 3 months gestation […] fetus) were used in cell-based experiments to determine the cytotoxicity of inhibitors and their effect on antitumour drug topotecan using standard MTT test[48]. Cells were incubated in Iscove’s Modified Dulbecco’s Medium (IMDM) supplemented with 10% fetal bovine serum and 40 µg/ml gentamicin, 10 U/ml penicillin, […], 0.25 µg/ml amphotericin at 37 °C and 5% CO2 for 24 h in a CO2 incubator; the optical density of the final solution was measured in the wells of the microplate at 570 nm and 620 nm wavelengths using a MultiScan FC (Thermo Scientific) microplate reader.
(§5) To study the effect of inhibitors on the cytotoxic effect of a well-known antitumour drug, the topotecan of the manufacturer “ACTAVIS GROUP PTC ehf.” was used. First of all, the 50% cytotoxic concentration (CC50) for topotecan and each inhibitor were determined to produce a defined single-agent effect. Second, three independent MTT-tests were performed with each inhibitor in combination with topotecan. Then, the synergistic coefficient (SC) was calculated according to the following formula (2)[49]: (2) SC= CC50 tpc,(+I)/CC50 tpc+CC50 I, (+tpc)/CC50 I,
(§6) CC50 tpc,(+I) and CC50 I,(+tpc) are the concentrations of topotecan and inhibitor used in combination to achieve 50% drug effect. CC50 tpc and CC50 I are the concentrations for single agents to achieve the same effect. SC values of less than, equal to, or more than 1 indicates synergy, additivity, and antagonism, respectively. The results were calculated and statistically processed in Microsoft Excel.

[8] = tested on: WI-38 cell line (noncancerous fibroblasts derived from lung tissue); assay: MTT test, cytotoxicity and combination with topotecan, WI-38; assay type: cell-based, human; settings: WI-38 non-cancerous cell line
Experimental: as §4, §5, §6

T2 sequence (Q9NUW8 whole entry H493R): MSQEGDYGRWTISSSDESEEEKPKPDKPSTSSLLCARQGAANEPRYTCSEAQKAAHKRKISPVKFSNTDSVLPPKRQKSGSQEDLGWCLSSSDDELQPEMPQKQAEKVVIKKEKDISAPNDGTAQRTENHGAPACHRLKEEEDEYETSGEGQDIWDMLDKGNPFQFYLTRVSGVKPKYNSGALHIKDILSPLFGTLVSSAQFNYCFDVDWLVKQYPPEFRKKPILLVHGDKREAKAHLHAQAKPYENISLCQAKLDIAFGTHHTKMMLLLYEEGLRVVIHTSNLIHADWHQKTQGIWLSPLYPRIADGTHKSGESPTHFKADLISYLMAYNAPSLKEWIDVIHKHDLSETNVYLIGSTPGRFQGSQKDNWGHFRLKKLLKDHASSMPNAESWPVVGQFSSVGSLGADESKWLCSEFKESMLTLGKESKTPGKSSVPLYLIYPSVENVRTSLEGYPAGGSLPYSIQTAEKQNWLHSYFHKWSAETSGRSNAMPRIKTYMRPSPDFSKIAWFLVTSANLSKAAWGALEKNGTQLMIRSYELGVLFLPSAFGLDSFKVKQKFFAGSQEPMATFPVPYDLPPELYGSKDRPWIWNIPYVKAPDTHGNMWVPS
T1 sequence (Q9NUW8 whole entry): as the sequence (Q9NUW8 whole entry H493R) above, with R493H counted along it

Compound	Inhibitory effect on TDP1 activity (in words) [1]	Water solubility (in words) [2]	Type of inhibition [3]	Ki [3] [nM]	IC50 [1] [nM]	Change of fluorescence anisotropy with inhibitor concentration [4]	Type of inhibition [5]	Ki [5] [nM]	IC50 [6] [nM]	Synergistic coefficient (SC) with topotecan [7]	Effect on cytotoxic effect of topotecan (in words) [7]	Synergy with topotecan (in words) [8]
Nc1ncnc2c1ncn2[C@@H]1O[C@H](CO)[C@@H](O)[C@H]1O[C@@H]1O[C@H](COP(=O)([O-])[O-])[C@@H](O)[C@H]1O.[Na+].[Na+] [Compound 3]	low inhibitory effect	water-soluble										
CC(C)[Si]1(C(C)C)OC[C@H]2O[C@@H](n3cnc4c(NC(=O)c5ccccc5)ncnc43)[C@H](O[C@@H]3O[C@H](COC(=O)c4ccccc4)[C@@H](OC(=O)c4ccccc4)[C@H]3OC(=O)c3ccccc3)[C@@H]2O[Si](C(C)C)(C(C)C)O1 [Compound 4]			Mixed	300 ± 100	1300 ± 200	significant decrease in the anisotropy	Mixed	200 ± 100	> 100000	less than or equal to 0.7	significant increase of cytotoxic effect of topotecan	
Cc1cn([C@@H]2O[C@H](COP(=O)([O-])[O-])[C@@H](O)[C@H]2O[C@@H]2O[C@H](CO)[C@@H](O)[C@H]2O)c(=O)[nH]c1=O.[Na+].[Na+] [Compound 6]		high water solubility	Noncompetitive	7900 ± 800	18500 ± 800	anisotropy remained unchanged	Noncompetitive	8800 ± 900	> 100000		significant increase of cytotoxic effect of topotecan	
Cc1cn([C@@H]2O[C@@H]3CO[Si](C(C)C)(C(C)C)O[Si](C(C)C)(C(C)C)O[C@H]3[C@H]2O[C@@H]2O[C@H](COC(=O)c3ccccc3)[C@@H](OC(=O)c3ccccc3)[C@H]2OC(=O)c2ccccc2)c(=O)[nH]c1=O [Compound 7]			Mixed	900 ± 300		significant decrease in the anisotropy	Mixed	300 ± 100	> 100000	less than or equal to 0.7	significant increase of cytotoxic effect of topotecan	
Nc1nc2c(ncn2[C@@H]2O[C@H](CO)[C@@H](O)[C@H]2O[C@@H]2O[C@H](COP(=O)([O-])[O-])[C@@H](O)[C@H]2O)c(=O)[nH]1.[Na+].[Na+] [Compound 9]	not active at all	water-soluble										
CC(C)C(=O)Nc1nc2c(ncn2[C@@H]2O[C@H](CO)[C@@H](O)[C@H]2O[C@@H]2O[C@H](COC(=O)c3ccccc3)[C@@H](OC(=O)c3ccccc3)[C@H]2OC(=O)c2ccccc2)c(=O)[nH]1 [Compound 10]			Mixed	1700 ± 400		significant decrease in the anisotropy	Mixed	3100 ± 300	> 100000	less than or equal to 0.7	significant increase of cytotoxic effect of topotecan	demonstrated synergy with topotecan
CC(C)C(=O)Nc1nc2c(ncn2[C@@H]2O[C@@H]3CO[Si](C(C)C)(C(C)C)O[Si](C(C)C)(C(C)C)O[C@H]3[C@H]2O[C@@H]2O[C@H](COC(=O)c3ccccc3)[C@@H](OC(=O)c3ccccc3)[C@H]2OC(=O)c2ccccc2)c(=O)[nH]1 [Compound 11]			Mixed	200 ± 100		significant decrease in the anisotropy	Mixed	300 ± 200	> 100000		significant increase of cytotoxic effect of topotecan	
CC(C)[Si]1(C(C)C)OC[C@H]2O[C@@H](n3ccc(=O)[nH]c3=O)[C@H](O[C@@H]3O[C@H](COC(=O)c4ccccc4)[C@@H](OC(=O)c4ccccc4)[C@H]3OC(=O)c3ccccc3)[C@@H]2O[Si](C(C)C)(C(C)C)O1 [Compound 21]			Mixed	300 ± 200		significant decrease in the anisotropy	Mixed	400 ± 300	> 100000	less than or equal to 0.7	significant increase of cytotoxic effect of topotecan	demonstrated synergy with topotecan
